Results reported in patent publication US20190125934A1, “TOUGH HYDROGEL COATING AND METHOD OF MANUFACTURE” (Massachusetts Institute of Technology, priority 2017, published 2019).
Structures can show the parent of a compound that is named as a salt.

Tests used:
[1] = Two-chamber release test of model drugs from hydrogel laminate; type: physicochemical; settings: for dye leakage through the laminate into the opposite chamber: absorbance at 550 nm and 630 nm in both chambers; for power law release exponent: release from hydrogel layers of the laminate into DI water, Fickian release
Source text: A two-chamber diffusion device was made using cast acrylic plates (McMaster Carr), and small magnetic stir bars and stir plates (VWR International) were used for stirring. For the diffusion tests, a 3cm×3 cm hydrogel, elastomer, or impermeable hydrogel laminate sample was placed between the chambers and screwed together tightly to prevent leakage from the chambers. A 5.0×10−4 M rhodamine B solution (Sigma-Aldrich R6626) was placed on one chamber while DI water was placed in the opposite chamber, and 1 mL aliquots were taken every 10 min and placed in a disposable cuvette. Absorbance was measured using a spectrophotometer (BioMate 3S, ThermoFischer Scientific) and converted to concentration using calibration curves of solutions with known concentrations. The setup for release experiments was identical except both chambers initially contained DI water with rhodamine B and green food dye (Fast green FCF, Sigma-Aldrich F7252) being released from the hydrogel. For rhodamine diffusion and release, a wavelength sweep was performed to determine the maximum absorbance, which occurred at 550 nm. The calibration curve was constructed by measuring absorbance of standard solutions in the 0-50×10−6 m range. For green food dye release, the maximum absorbance occurred at 630 nm. The calibration curve was constructed by measuring absorbance of standard solutions in the 0-200 ppm range.
Taking advantage of the impermeability of the hydrogel-elastomer laminate, the possibility of releasing different molecules from the two sides of the hydrogel sheets in the laminate was tested. Green food dye (Fast Green FCF, Sigma-Aldrich) and rhodamine B were used as model drugs and were loaded into the opposing two hydrogel sheets in the hydrogel-elastomer laminate structure. […] The concentrations of green food dye and rhodamine B in the solutions of both chambers were measured over time using absorbance measurements. […] Since the dyes used have absorbance maximums at different wavelengths (550 nm and 630 nm), it was possible to detect dye leakage through the impermeable hydrogel-elastomer laminate by monitoring the absorbance signals at the two wavelengths in both chambers.

[2] = tested on: Escherichi coli strain expressing green fluorescent protein; assay: Bacterial adhesion testing; type: cell-based; settings: 24 hour incubation; FIG. 4; streptomycin sulfate 0.1 wt %
Source text: The high robustness and stretchability of the hydrogel-elastomer laminates allows for proper functioning of the devices under stresses and deformations. […] In addition, the lubricious and highly hydrated hydrogel coating surfaces provided by the present invention are capable of improving protein adsorption, anticlotting and foreign-body reaction of the device as compared to an uncoated device. Moreover, the coating protocol of the present invention can be designed to include therapeutic agents in the hydrogel coating and/or to introduce hydrogel components with known biological responses such as PEG, hyaluronic acid, and zwitterionic groups.
An engineered Escherichi coli strain expressing green fluorescent protein was cultured in a 24-well plate above 8 mm round samples of latex, glass or swollen hydrogel laminate (PAAm-ALG and PAAm-CHI, as described previously). Streptomycin sulfate (Sigma-Aldrich S9137) was added to the two laminate formulations, at a final concentration of 0.1 wt %. After incubating at 37° C. for 24 h, the samples were removed, rinsed with PBS to remove free-floating bacteria, and imaged with a fluorescent microscope (Nikon Eclipse LV100ND).

Row | SMILES | dye leakage through the laminate into the opposite chamber [1] | power law release exponent [1] | effect on antibacterial action of the hydrogel laminates [2]
1 | CCN(Cc1cccc(S(=O)(=O)[O-])c1)c1ccc(C(=C2C=CC(=[N+](CC)Cc3cccc(S(=O)(=O)[O-])c3)C=C2)c2ccc(O)cc2S(=O)(=O)[O-])cc1.[Na+].[Na+] [Green food dye, Fast Green FCF] | No green food dye was detected in the rhodamine chamber | 0.5 | 
2 | [H]/N=C(/N)N[C@H]1[C@H](O)[C@@H](O)[C@H](O[C@@H]2O[C@@H](C)[C@](O)(C=O)[C@H]2O[C@@H]2O[C@@H](CO)[C@H](O)[C@@H](O)[C@@H]2NC)[C@@H](N/C(N)=N\[H])[C@@H]1O [antibiotic, Streptomycin sulfate] |  |  | improve the antibacterial action
3 | CCN(CC)c1ccc2c(-c3ccccc3C(=O)O)c3ccc(=[N+](CC)CC)cc-3oc2c1 [rhodamine B] | vice versa | 0.5 | 
